Assays:
B-RAF V600E = target: T1, B-RAF V600E (Homo sapiens, UniProt P15056, V600E); test: Target protein degradation, assay C: T-Rex 293 cells, HA-BRAF_V600E, 384 well format; format: cell-based; conditions: T-Rex 293 HA-BRAF_V600E cells, 24 hours, Examples 83-269; for DC50: Assay C; for Dmax: T-REx-293, Assay C
T1 construct: expressed in transfected cells; host or cells: T-Rex 293 cells (Invitrogen #R71007)
Procedure, shortened: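 After 24 h exposure to an 11-point 1:3 series (300 nM–5 pM, 0.5% DMSO), fixed T-Rex 293 cells carrying HA-BRAF V600E (induced with 1 ng/mL doxycycline) were stained anti-HA and imaged. DC50 and Dmax were derived from BRAF intensity relative to control, and cytotoxicity from nuclear counts.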

B-RAF G466V = target: T2, B-RAF G466V (Homo sapiens, UniProt P15056, G466V); test: Target protein degradation, assay D: T-Rex 293 cells, HA-BRAF_G466V, 384 well format; format: cell-based; conditions: T-Rex 293 HA-BRAF_G466V cells, 24 hours, Examples 83-269; for DC50: Assay D; for Dmax: T-REx-293, Assay D
T2 construct: expressed in transfected cells; host or cells: T-Rex 293 cells (Invitrogen #R71007)
T2 sequence (P15056 whole entry G466V): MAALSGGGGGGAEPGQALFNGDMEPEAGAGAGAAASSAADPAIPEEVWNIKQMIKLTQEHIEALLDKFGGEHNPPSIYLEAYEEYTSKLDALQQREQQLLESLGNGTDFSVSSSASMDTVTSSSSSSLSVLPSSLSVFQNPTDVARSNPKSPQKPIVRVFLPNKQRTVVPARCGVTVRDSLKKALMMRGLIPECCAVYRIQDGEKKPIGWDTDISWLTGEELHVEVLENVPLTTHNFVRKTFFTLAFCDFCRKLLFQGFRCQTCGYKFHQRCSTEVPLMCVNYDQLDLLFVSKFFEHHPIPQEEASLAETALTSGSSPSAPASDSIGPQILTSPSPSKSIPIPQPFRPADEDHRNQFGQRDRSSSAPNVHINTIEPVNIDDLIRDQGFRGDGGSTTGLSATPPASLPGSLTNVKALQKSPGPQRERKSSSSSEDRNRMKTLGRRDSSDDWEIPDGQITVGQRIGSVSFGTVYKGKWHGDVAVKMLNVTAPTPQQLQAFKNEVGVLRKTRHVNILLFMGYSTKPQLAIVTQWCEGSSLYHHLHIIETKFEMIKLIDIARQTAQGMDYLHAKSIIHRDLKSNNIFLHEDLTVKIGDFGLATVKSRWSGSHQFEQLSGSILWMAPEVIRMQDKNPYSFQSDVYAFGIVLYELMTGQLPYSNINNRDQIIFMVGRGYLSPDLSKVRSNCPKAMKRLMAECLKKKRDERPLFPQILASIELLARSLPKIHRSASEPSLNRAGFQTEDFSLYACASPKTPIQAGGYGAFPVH
Procedure, shortened: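 Degradation measured by high-content imaging of anti-HA immunofluorescence in fixed T-Rex 293 cells carrying inducible HA-BRAF G466V (1 ng/mL doxycycline), after 24 h PROTAC exposure at 37 °C over 300 nM–5 pM (1:3, 11 points, 0.5% DMSO). Outputs DC50 and Dmax as % of control; nuclei counts against DMSO wells gauge toxicity.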

T1 sequence (P15056 whole entry V600E): as the sequence (P15056 whole entry G466V) above, with V466G, V600E counted along it

Row | Compound | DC50 (B-RAF V600E) [µM] | Dmax (B-RAF V600E) [%] | DC50 (B-RAF G466V) [µM] | Dmax (B-RAF G466V) [%]
1 | CN(c1ccc(-n2cnc3ccc(Oc4c(F)ccc(NS(=O)(=O)N5CC[C@@H](F)C5)c4C#N)cc3c2=O)cc1)[C@H]1CC[C@@H](N2CCN(c3ccc4c(c3)CN([C@H]3CCC(=O)NC3=O)C4=O)CC2)CC1 [Example 224, (3R)-N-(2-cyano-4-fluoro-3-{[3-(4-{methyl[(1r,4r)-4-(4-{2-[(3S)-2,6-dioxopiperidin-3-yl]-1-oxo-2,3-dihydro-1H-isoindol-5-yl}piperazin-1-yl)cyclohexyl]amino}phenyl)-4-oxo-3,4-dihydroquinazolin-6-yl]oxy}phenyl)-3-fluoropyrrolidine-1-sulfonamide] | 0.05 to 0.5 | ≤ 35 | 0.01 to 0.03 | 35 to 70
2 | CN(c1ccc(-n2cnc3ccc(Oc4c(F)ccc(NS(=O)(=O)N5CC[C@@H](F)C5)c4C#N)cc3c2=O)cc1)C1CCC(N2CCN(c3ccc4c(c3)CN([C@H]3CCC(=O)NC3=O)C4=O)CC2)CC1 (stereo partly drawn) [Example 225, (3R)-N-(2-cyano-4-fluoro-3-{[3-(4-{methyl[(1s,4s)-4-(4-{2-[(3S)-2,6-dioxopiperidin-3-yl]-1-oxo-2,3-dihydro-1H-isoindol-5-yl}piperazin-1-yl)cyclohexyl]amino}phenyl)-4-oxo-3,4-dihydroquinazolin-6-yl]oxy}phenyl)-3-fluoropyrrolidine-1-sulfonamide] | > 0.5 |  | 0.01 to 0.03 | 35 to 70
3 | N#Cc1c(NS(=O)(=O)N2CC[C@@H](F)C2)ccc(F)c1Oc1ccc2ncn(-c3ccc(C4CCC5(CC4)CCN(CC4CCN(c6ccc7c(c6)CN([C@H]6CCC(=O)NC6=O)C7=O)CC4)CC5)cc3)c(=O)c2c1 [Example 226, (3R)-N-(2-cyano-3-{[3-(4-{3-[(1-{2-[(3S)-2,6-dioxopiperidin-3-yl]-1-oxo-2,3-dihydro-1H-isoindol-5-yl}piperidin-4-yl)methyl]-3-azaspiro[5.5]undecan-9-yl}phenyl)-4-oxo-3,4-dihydroquinazolin-6-yl]oxy}-4-fluorophenyl)-3-fluoropyrrolidine-1-sulfonamide] | 0.05 to 0.5 | ≤ 35 | 0.001 to 0.01 | 35 to 70
4 | CCc1c(NS(=O)(=O)N2CC[C@@H](F)C2)ccc(F)c1Oc1ccc2ncn(-c3ccc(N4CCN(CC5CCN(c6ccc7c(c6)CN(C6CCC(=O)NC6=O)C7=O)CC5)CC4)cc3)c(=O)c2c1 (stereo partly drawn) [Example 227, (3R)-N-{3-[(3-{4-[4-({1-[2-(2,6-dioxopiperidin-3-yl)-1-oxo-2,3-dihydro-1H-isoindol-5-yl]piperidin-4-yl}methyl)piperazin-1-yl]phenyl}-4-oxo-3,4-dihydroquinazolin-6-yl)oxy]-2-ethyl-4-fluorophenyl}-3-fluoropyrrolidine-1-sulfonamide] | 0.05 to 0.5 | ≤ 35 | 0.01 to 0.03 | ≤ 35
5 | N#Cc1c(NS(=O)(=O)N2CC[C@@H](F)C2)ccc(F)c1Oc1ccc2ncn(-c3ccc(N4CCC(CN5CCC6(CC5)CCN(c5ccc7c(c5)CN([C@H]5CCC(=O)NC5=O)C7=O)CC6)CC4)cc3)c(=O)c2c1 [Example 228, (3R)-N-(2-cyano-3-{[3-(4-{4-[(9-{2-[(3S)-2,6-dioxopiperidin-3-yl]-1-oxo-2,3-dihydro-1H-isoindol-5-yl}-3,9-diazaspiro[5.5]undecan-3-yl)methyl]piperidin-1-yl}phenyl)-4-oxo-3,4-dihydroquinazolin-6-yl]oxy}-4-fluorophenyl)-3-fluoropyrrolidine-1-sulfonamide] | 0.05 to 0.5 | 35 to 70 | 0.001 to 0.01 | 35 to 70

Other lines, results leading:

Row | DC50 (B-RAF V600E) [µM] | Dmax (B-RAF V600E) [%] | DC50 (B-RAF G466V) [µM] | Dmax (B-RAF G466V) [%] | Compound
6 | 0.05 to 0.5 | 35 to 70 | 0.001 to 0.01 | 35 to 70 | N#Cc1c(NS(=O)(=O)N2CC[C@@H](F)C2)ccc(F)c1Oc1ccc2ncn(-c3ccc(N4CCC(CN5CC6(CCC(c7ccc8c(c7)CN([C@H]7CCC(=O)NC7=O)C8=O)CC6)C5)CC4)cc3)c(=O)c2c1 [Example 219, (3R)-N-(2-cyano-3-{[3-(4-{4-[(7-{2-[(3S)-2,6-dioxopiperidin-3-yl]-1-oxo-2,3-dihydro-1H-isoindol-5-yl}-2-azaspiro[3.5]nonan-2-yl)methyl]piperidin-1-yl}phenyl)-4-oxo-3,4-dihydroquinazolin-6-yl]oxy}-4-fluorophenyl)-3-fluoropyrrolidine-1-sulfonamide]
7 | 0.05 to 0.5 | 35 to 70 | 0.01 to 0.03 | 35 to 70 | N#Cc1c(NS(=O)(=O)N2CC[C@@H](F)C2)ccc(F)c1Oc1ccc2ncn(-c3ccc(N4CCC(CN5CC6(CCC(c7ccc8c(c7)CN([C@@H]7CCC(=O)NC7=O)C8=O)CC6)C5)CC4)cc3)c(=O)c2c1 [Example 220, (3R)-N-(2-cyano-3-{[3-(4-{4-[(7-{2-[(3R)-2,6-dioxopiperidin-3-yl]-1-oxo-2,3-dihydro-1H-isoindol-5-yl}-2-azaspiro[3.5]nonan-2-yl)methyl]piperidin-1-yl}phenyl)-4-oxo-3,4-dihydroquinazolin-6-yl]oxy}-4-fluorophenyl)-3-fluoropyrrolidine-1-sulfonamide]
8 | 0.05 to 0.5 | 35 to 70 | 0.001 to 0.01 | 35 to 70 | N#Cc1c(NS(=O)(=O)N2CC[C@@H](F)C2)ccc(F)c1Oc1ccc2ncn(-c3ccc(N4CCC(CN5CCC(c6ccc7c(c6)CN([C@H]6CCC(=O)NC6=O)C7=O)CC5)C4)cc3)c(=O)c2c1 (stereo partly drawn) [Example 221, (3R)-N-(2-cyano-3-{[3-(4-{3-[(4-{2-[(3S)-2,6-dioxopiperidin-3-yl]-1-oxo-2,3-dihydro-1H-isoindol-5-yl}piperidin-1-yl)methyl]pyrrolidin-1-yl}phenyl)-4-oxo-3,4-dihydroquinazolin-6-yl]oxy}-4-fluorophenyl)-3-fluoropyrrolidine-1-sulfonamide]
9 | 0.05 to 0.5 | 35 to 70 | 0.001 to 0.01 | 35 to 70 | CN(c1ccc2c(c1)CN([C@H]1CCC(=O)NC1=O)C2=O)C1CCC2(CC1)CCN(CC1CCN(c3ccc(-n4cnc5ccc(Oc6c(F)ccc(NS(=O)(=O)N7CC[C@@H](F)C7)c6C#N)cc5c4=O)cc3)CC1)CC2 [Example 222, (3R)-N-[2-cyano-3-({3-[4-(4-{[9-({2-[(3S)-2,6-dioxopiperidin-3-yl]-1-oxo-2,3-dihydro-1H-isoindol-5-yl}(methyl)amino)-3-azaspiro[5.5]undecan-3-yl]methyl}piperidin-1-yl)phenyl]-4-oxo-3,4-dihydroquinazolin-6-yl}oxy)-4-fluorophenyl]-3-fluoropyrrolidine-1-sulfonamide]
10 | 0.05 to 0.5 | 35 to 70 | 0.001 to 0.01 | 35 to 70 | N#Cc1c(NS(=O)(=O)N2CC[C@@H](F)C2)ccc(F)c1Oc1ccc2ncn(-c3ccc(N4CCN(CC5(F)CCN(c6ccc7c(c6)CN([C@H]6CCC(=O)NC6=O)C7=O)CC5)CC4)cc3)c(=O)c2c1 [Example 223, (3R)-N-(2-cyano-3-{[3-(4-{4-[(1-{2-[(3S)-2,6-dioxopiperidin-3-yl]-1-oxo-2,3-dihydro-1H-isoindol-5-yl}-4-fluoropiperidin-4-yl)methyl]piperazin-1-yl}phenyl)-4-oxo-3,4-dihydroquinazolin-6-yl]oxy}-4-fluorophenyl)-3-fluoropyrrolidine-1-sulfonamide]
